The target of assay [1] is T1, EC1 domain of E-cadherin (Homo sapiens, UniProt P12830).
T1 sequence (P12830 155-262 limits assumed): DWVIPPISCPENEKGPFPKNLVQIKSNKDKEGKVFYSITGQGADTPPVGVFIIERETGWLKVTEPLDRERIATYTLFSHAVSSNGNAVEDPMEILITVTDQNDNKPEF
Put plainly: SPR binding to immobilized EC1 domain of E-cadherin. The settings on record: authors' separate study; for Kd: EC1 immobilized on streptavidin chip via Streptag I at N-terminus. The source says: However, it was not yet clear whether the difference in activity was due to additive activity by the two sequences (Thr-Pro-Pro-Val and Ser-His-Ala-Val) or domination by only one sequence. As mentioned above, there was a trend that cyclic ADTHAV was slightly better than ADTC5. Because it is difficult to differentiate the activities of cyclic ADTHAV and ADTC5 in vivo, we compared their binding properties to the EC1 domain of E-cadherin using SPR experiments in a separate study. After optimizing the SPR running conditions, the EC1 protein was immobilized on the streptavidin chip via the Streptag I sequence on the N-terminus of the EC1 domain followed by injection of various peptide concentrations. […] In the future, the mechanism of cyclic ADTHAV binding to the EC1-domains of E-cadherin and VE-cadherin will be evaluated.
A general note: In SPR one partner is held on a chip, and binding of the other changes the refractive index at the surface.

Assay [2] has as its system brains of C57BL/6 mice. Put plainly: In vivo brain delivery of IRdye800CW-IgG mAb (NIRF quantification). The settings on record: n = 3; for amount of IgG mAb in the brain (brain deposition): IgG mAb 21.6 nmol/kg with or without 13 µmol/kg peptide, i.v. tail vein, 15 min circulation, PBS/0.5% Tween-20 perfusion, NIRF (Odyssey CLx) of brain homogenate, mean ± SEM; for brain delivery of IgG mAb compared to control (IgG mAb alone), in words: IgG mAb 21.6 nmol/kg, peptide 13 µmol/kg i.v., ANOVA Student–Newman–Keuls. As to the method: The activity of each peptide in enhancing BBB penetration was evaluated by delivering IRdye800CW donkey anti-goat IgG mAb in C57BL/6 mice; the amounts of mAb in the brain were determined using near infrared fluorescence (NIRF) imaging. Each group contains 3 mice per group (n = 3) with a mixture of male and female mice, selected randomly for each arm of the study. The injection solution was prepared by adding 600 µL PBS into 0.5 mg lyophilized IgG mAb; then, approximately 1.5 mg lyophilized peptide was added into the mixture yielding the injectable formulation. A 100 µL solution of a mixture containing IgG mAb (21.6 nmol/kg) along with 13 µmol/kg peptide was administered via tail vein. As a control, 100 µL of IgG mAb alone was administered via i.v. route. After the delivered molecules had been circulating for 15 min, the mice were sacrificed; then, a mixture of PBS with 0.5% Tween-20 was administered for cardiac perfusion to remove the blood and delivered molecules from the brain microvessels. The brain and other organs such as lung, heart, spleen, liver, and kidney were harvested and rinsed with PBS. The isolated organs were scanned with Odyssey® CLx for mAb quantification.
The brain deposition of IgG mAb was also quantified by NIRF imaging in brain homogenates. The isolated brains were mechanically homogenized in 2.0 mL of PBS. To make the standard solutions, IRDye800CW IgG mAb stock solution (70 µg/mL) was prepared; it was then diluted with various amounts of PBS to make six different mAb concentrations. To generate a calibration curve, the brain homogenate (200 µL) was aliquoted out to a 96-well plate. A total of 10 µL of each concentration of IgG mAb was added to three different wells of blank brain homogenates. The standard spiked homogenates were at a range of 10–200 ng/mL IgG mAb in brain homogenate. The wells were scanned using the Odyssey® CLx scanner, and the signal intensities vs. concentrations of mAb per gram of brain were used to generate a calibration curve.
ANOVA with Student–Newman–Keuls was used to compare the data for determining statistical significance for IgG mAb deposition in the brains. A p-value of less than 0.05 was used as a criterion for a significant difference in data comparison. Numeric results are presented as: mean ± SEM.
A calibration curve was generated to determine the amount of IgG mAb in the brain by spiking blank brain homogenates with a concentration range from 10 to 200 ng/mL, and good linearity with R^2 ≥ 0.98 was achieved. […] The average amounts of IgG mAb in the brains of HAV6-treated and control animals were 3.4 ± 0.4 and 4.0 ± 0.5 pmol/g brain, respectively. In contrast, the average amounts of mAb in the brains of cyclic HAVN1- and HAVN2-treated mice were 8.6 ± 0.5 and 8.8 ± 0.6 pmol/g brain, respectively. The BBB modulatory activities of ADTC5, linear ADTHAV, and cyclic ADTHAV were also compared to the control (Figure 5). […] The average brain deposition of IgG mAb were 11.8 ± 0.5, 15.7 ± 0.8, and 13.3 ± 0.7 pmol/g brain for linear ADTHAV, cyclic ADTHAV, and ADTC5, respectively.

The test system of assay [3] is MDCK cell monolayers. As to conditions: cited from earlier work. The protocol: Previously, cyclic cHAVc1 (cyclo(1,8)Ac-CSHAVASC-NH2) and cHAVc3 (cyclo(1,6)Ac-CSHAVC-NH2) were prepared and compared to a linear HAV4 (Ac-SHAVAS-NH2) in modulating the intercellular junctions in vitro and in vivo [19]. […] An alanine scanning study was carried out to evaluate the role of each amino acid in HAV6 peptide, and the biological activity of each alanine mutant peptide was evaluated in lowering the TEER values of MDCK cell monolayers. Mutation of the Ser1 to Ala1 residue reduced the junction modulatory activity of the HAV6 mutant; ...

For assay [4], the target named is EC1 domain of E-cadherin. Put plainly: SPR; EC1 protein immobilised on a streptavidin chip via the Streptag I sequence on its N-terminus; various peptide concentrations injected.

Here are results for nine molecules from article PMC6920923, “Improving In Vivo Brain Delivery of Monoclonal Antibody Using Novel Cyclic Peptides” (Pharmaceutics, 2019).

“Also recorded” adds a separate entry of the source. Positions of bridges follow the written chain, without caps; N, C: chain ends. Residues, ends and D or L forms follow the SMILES beside them.

Molecule `CC(C)[C@@H]1NC(=O)[C@H](C)NC(=O)[C@H](Cc2c[nH]cn2)NC(=O)[C@H](CO)NC(=O)[C@H](C(C)C)NC(=O)[C@@H]2CCCN2C(=O)[C@@H]2CCCN2C(=O)[C@H]([C@@H](C)O)NC1=O` [cyclic ADTHAV, Cyclo(1,8)TPPVSHAV] (cyclo(TPPVSHAV)) returned a Kd in assay [1] of 0.114 µM. Further, the “binding affinity to EC1 domain of E-cadherin vs ADTC5, in words” value is on record as “higher binding affinity” in assay [1] and “better binding affinity to the EC1 domain of E-cadherin than does ADTC5” in assay [1] (listed as Cyclic ADTHAV). Also, in assay [2] (13 µmol/kg peptide, 15 min), the “BBB modulatory activity to deliver IgG mAb compared to cyclic HAVN2, in words” value is listed as “significantly better than that of cyclic HAVN2”. Besides, the “amount of IgG mAb in the brain (brain deposition)” value (from here on “amount of IgG mAb in the brain”) in assay [2] is listed as 15.7 ± 0.8 pmol/g brain. In addition, in assay [2] (15 min), the “brain delivery of IgG mAb compared to control (IgG mAb alone), in words” value is reported as “significantly better than in the PBS control”.
For “cyclo(1,8)Ac-CSHAVASC-NH2 (disulfide) [cHAVc1, earlier cyclic HAV peptide]”, in assay [3] (compared to HAV4 (and cHAVc1), ref [19]), the “junction modulatory activity in MDCK cell monolayers, in words” value is listed as “same junction modulatory activity as HAV4 peptide”.
“Ac-SHAVAS-NH2 [HAV4, earlier linear HAV peptide]”: the “junction modulatory activity of HAV6 analogues (alanine scan), in words” value in assay [3] (lowering TEER of MDCK cell monolayers, ref [34]) is recorded as “enhanced modulatory activity of the peptide compared to HAV6”.
Consider “Cyclo(1,6)SHAVSS (head to tail) [HAVN1, N-to-C-termini cyclo-hexapeptide derived from HAV6]”, for which the “BBB modulatory activity / IgG mAb brain delivery compared to HAV6, in words” value in assay [2] (13 µmol/kg peptide, 15 min) is on record as “significantly enhanced; also recorded: improvement in the BBB modulatory activity; also recorded: better BBB modulatory effects than their linear counterpart, HAV6”. The “amount of IgG mAb in the brain” value in assay [2] is on record as 8.6 ± 0.5 pmol/g brain. The “brain delivery of IgG mAb compared to control (IgG mAb alone), in words” value in assay [2] (15 min) was “significantly enhanced”.
For the molecule “Cyclo(1,5)SHAVS (head to tail) [HAVN2, N-to-C-termini cyclo-pentapeptide derived from HAV6]”, in assay [2] (13 µmol/kg peptide, 15 min), the “BBB modulatory activity / IgG mAb brain delivery compared to HAV6, in words” value was “significantly enhanced; also recorded: improvement in the BBB modulatory activity; also recorded: better BBB modulatory effects than their linear counterpart, HAV6” and the “BBB modulatory activity compared to HAVN1, in words” value is “removal of one serine residue did not influence the BBB modulatory activity of HAVN2 compared to HAVN1”. The “amount of IgG mAb in the brain” value in assay [2] came to 8.8 ± 0.6 pmol/g brain. Also, in assay [2] (15 min), the “brain delivery of IgG mAb compared to control (IgG mAb alone), in words” value was “significantly enhanced”.
As to `CC(=O)N[C@H]1CSSC[C@@H](C(N)=O)NC(=O)[C@H](C(C)C)NC(=O)[C@@H]2CCCN2C(=O)[C@@H]2CCCN2C(=O)[C@H]([C@@H](C)O)NC(=O)[C@H](CC(=O)O)NC1=O` [ADTC5, Cyclo(1,7)Ac-CDTPPVC-NH2] (Ac-CDTPPVC-NH2; disulfide 1-7), in assay [1], binding was put at a Kd of 26.8 µM.
For the molecule Ac-TPPVSHAV-NH2 [linear ADTHAV], in assay [2], the “amount of IgG mAb in the brain” value was 11.8 ± 0.5 pmol/g brain. Further, the “brain delivery of IgG mAb compared to control (IgG mAb alone), in words” value in assay [2] (15 min) was “significantly better than in the PBS control”.

B1: Cyclic ADTC5 (peptide)
peptide: Ac-CDTPPVC-NH2
modifications: disulfide 1-7
SMILES: CC(=O)N[C@H]1CSSC[C@@H](C(N)=O)NC(=O)[C@H](C(C)C)NC(=O)[C@@H]2CCCN2C(=O)[C@@H]2CCCN2C(=O)[C@H]([C@@H](C)O)NC(=O)[C@H](CC(=O)O)NC1=O
B1 yielded a Kd in assay [4] of 26.8 µM.

B2: Cyclic ADTHAV (peptide)
peptide: TPPVSHAV
modifications: cyclo(1,8): N-to-C terminal peptide bond
B2 registered a Kd in assay [4] of 0.114 µM.

As a reminder, the Kd is the concentration at which binding is half-saturated. A low value points to higher affinity.
